Measured values published in patent US6676932B2, “Ultraviolet absorbent, photostabilizer, ultraviolet ray-absorbing composition, photostabilized composition and external preparation for skin” (Shiseido Co., Ltd., priority 2001, dated 2004).

Columns and labels:
[1] = Stabilization effect on perfume under daylight exposure (Test Examples 92 to 181); type: physicochemical; parameters: key: ◯: no change; Δ: almost no change; x: change; settings: daylight exposure (80 MJ)
Protocol: Each test sample was prepared for observation of the change of the odor of the test sample (determined by perfume coordinator) before and after daylight exposure (80 MJ).

[2] = Photostability test of aqueous solutions under daylight (Test Example 4); type: physicochemical; settings: aqueous solution, daylight for 2 weeks (80 MJ)
Protocol: Aqueous solutions of the pyridazine derivative of the invention were exposed to daylight for 2 weeks (at a daylight exposure of 80 MJ). Subsequently, the remaining ratio and the change of the appearance were examined to measure the ultraviolet spectra with a spectrophotometer (solvent: water; concentration of 10 ppm and optical path length of 1 cm). The area under ultraviolet spectra curve from 290 nm to 400 nm were determined by integration to compare the area with the area before daylight exposure.
The remaining ratio and the change of the area under the ultraviolet spectrum were determined on the basis of the following standards.
⊚: 95% or more of those before daylight exposure.
◯: 90% or more to less than 95% of those before daylight exposure.
Δ: 70% or more to less than 90% of those before daylight exposure.
x: less than 70% of those before daylight exposure.

[3] = Dye stabilization effect under daylight exposure (Test Examples 6-91); type: physicochemical; parameters: key to Δ E: color difference ΔE in Lab vs. color before daylight exposure; key to Appearance (visual determination): ◯: no change; Δ: almost no change; x: change; settings: photostabilizer 0.05 wt %, daylight exposure (80 MJ)
How it was run: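 Test samples exposed to daylight to 80 MJ; appearance judged visually. Colour measured by spectrophotometer in Lab coordinates, with ΔE calculated relative to pre-exposure values (L1, a1, b1).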

[4] = Stability test in combination with inorganic powder-based ultraviolet shielding agent, sunscreen cream (Test Example 5); type: physicochemical; settings: sunscreen cream with inorganic powders; ultraviolet absorbent 10.0 wt %; 50° C. for 2 months; visual observation
Protocol: A sunscreen cream of the following formulation was prepared and stored at 50° C. for 2 months. Under visual observation of the color change, the stability of the inventive pyridazine derivative in combination with inorganic powder-based ultraviolet screening agents commonly in blend as external preparations for skin for the purpose of ultraviolet prevention was examined.
After the ingredient 2 was added to the ingredient 1 to swell the ingredient 2, the ingredients 3 to 11 were mixed with the resulting mixture under heating, for sufficient dispersion and dissolution. While keeping the dispersion at 70° C., a solution of the mixture of the ingredients 12 to 15 was gradually added to the dispersion under thorough emulsification with a homomixer. The resulting mixture was cooled to 30° C. under sufficient stirring to prepare sunscreen creams.

[5] = system: sunburn; experiment: Ultraviolet preventive effect, application test on beach in summer (Test Example 2); type: in vivo, human
Protocol: An application test was carried out on beach in summer. Equal volumes of samples were individually coated on back halves of subjects. After exposure to direct daylight, the degree of sunburn was assessed according to the following assessment standards. Each group consists of 10 subjects.
Prominently effective: none or almost no sunburn symptom was observed.
Effective: light sunburn symptom was observed.
Ineffective: strong sunburn symptom was observed.
⊚: prominently effective or effective for 80% or more of the subjects.
◯: prominently effective or effective for 50% or more to less than 80% of the subjects.
Δ: prominently effective or effective for 30% or more to less than 50% of the subjects.
x: prominently effective or effective for less than 30% of the subjects.
The aqueous phase and the alcohol phase were separately prepared and then mixed together.
Propylene glycol was added to and dissolved in ion exchange water. The resulting solution was retained at 70° C. under heating (aqueous phase). Other ingredients were mixed […]. The resulting mixture was melted under heating and retained at 70° C. (oil phase). The oil phase was added to the aqueous phase, for preliminary emulsification with a homomixer to homogeneity. Under thorough mixing, subsequently, the mixture was cooled to 30° C.

[6] = Drug stabilization effect under daylight exposure (Test Examples 182 to 211); type: physicochemical; parameters: key to Appearance (visual determination): ◯: no change; Δ: almost no change; x: change; settings: drug salicylic acid 0.1 wt %, photostabilizer 0.05 wt %, daylight exposure (80 MJ)
Protocol: For observation of the change of the appearance of each test sample (determination based on visual observation) and the measurement of the remaining ratio by liquid chromatography before and after daylight exposure (80 MJ), the test sample was prepared.

[7] = system: skin; experiment: Test of skin irritation: continuous application test (Test Example 3 i); type: in vivo, human; settings: 10 wt % ultraviolet absorbent, twice daily for 4 weeks
Protocol: (§1) The same samples as in the Test Example 2 were used (at a 10 wt % amount of an ultraviolet absorbent).
Continuous application test was carried out for 20 healthy subjects per one group. An appropriate amount of each of the samples was coated twice daily for 4 weeks. The effects were assessed according to the following assessment standards.
Mean score was calculated for the determination of the effect on the basis of the following standards.
(§2) ◯: mean score of more than 0 to less than 1.
(§3) Δ: mean score of 1 or more to less than 2.
(§4) x: mean score of 2 or more.

[8] = system: skin; experiment: Test of skin irritation: 24-hour occlusion patch test (Test Example 3 ii); type: in vivo, human; settings: 10 wt % ultraviolet absorbent
Protocol: as §1
20 Healthy male and female volunteers per one group were carried out in a 24-hour occlusion patch test, using a fin chamber on forearm curves. Assessment was done on the basis of the following assessment standards.
Mean score was determined for the assessment on the basis of the following standards.
as §2, §3, §4

[9] = dye Blue 1 (Brilliant Blue FCF) 0.0001 wt %
[10] = dye Green 3 (Fast Green FCF) 0.001 wt %
[11] = dye Red 227 (Acid Fuchsine D) 0.0001 wt %
[12] = dye Yellow 5 (Sunset Yellow FCF) 0.001 wt %
[13] = dyes Red 227 (Acid Fuchsine D) 0.0001 + Yellow 5 (Sunset Yellow FCF) 0.0001 wt %

In the case of `Oc1nnccc1N1CCCCC1` [3-Hydroxy-4-piperidinopyridazine, 3-hydroxy-4-piperidinopyridazine], the odor determination ([1]; base perfume Rose, photostabilizer 0.05 wt %) is reported as “◯”, the odor determination ([1]; base perfume Woody, photostabilizer 0.1 wt %) is reported as “◯” and the odor determination ([1]; natural perfume Rose oil, photostabilizer 0.05 wt %) is reported as “◯”. For the same compound, the Remaining ratio [2] was “⊚ (95% or more of those before daylight exposure)”, the “Change of area under ultraviolet spectrum” value ([2]; 290 nm to 400 nm) was “⊚ (95% or more of those before daylight exposure)” and the “Appearance (visual determination)” value [3, 9] was “◯”. For the same compound, the “Δ E” value [3, 9] was 1.24, the “Appearance (visual determination)” value [3, 10] was “◯” and the “Δ E” value [3, 10] was 0.46. For the same compound, the “Appearance (visual determination)” value [3, 11] was “◯”, the “Δ E” value [3, 11] was 0.54 and the “Appearance (visual determination)” value [3, 12] was “◯”. The “Δ E” value [3, 12] was 0.58, the “Appearance (visual determination)” value [3, 13] was “◯” and the “Δ E” value [3, 13] was 0.65. The Color change [4] was “no”, the Ultraviolet prevention effect ([5]; cream, blend amount 0.0005 wt %) was “Δ (prominently effective or effective for 30% or more to less than 50% of the subjects)” and the Ultraviolet prevention effect ([5]; cream, blend amount 0.001 wt %) was “◯ (prominently effective or effective for 50% or more to less than 80% of the subjects)”. For the same compound, the Ultraviolet prevention effect ([5]; cream, blend amount 0.01 wt %) was “⊚ (prominently effective or effective for 80% or more of the subjects)”, the Ultraviolet prevention effect ([5]; cream, blend amount 1 wt %) was “⊚ (prominently effective or effective for 80% or more of the subjects)” and the Ultraviolet prevention effect ([5]; cream, blend amount 5 wt %) was “⊚ (prominently effective or effective for 80% or more of the subjects)”. For the same compound, the Ultraviolet prevention effect ([5]; cream, blend amount 10 wt %) was “⊚ (prominently effective or effective for 80% or more of the subjects)”, the Ultraviolet prevention effect ([5]; cream, blend amount 20 wt %) was “⊚ (prominently effective or effective for 80% or more of the subjects)” and the Ultraviolet prevention effect ([5]; lotion, blend amount 0.0005 wt %) was “Δ (prominently effective or effective for 30% or more to less than 50% of the subjects)”. For the same compound, the Ultraviolet prevention effect ([5]; lotion, blend amount 0.001 wt %) was “◯ (prominently effective or effective for 50% or more to less than 80% of the subjects)”, the Ultraviolet prevention effect ([5]; lotion, blend amount 0.01 wt %) was “⊚ (prominently effective or effective for 80% or more of the subjects)” and the Ultraviolet prevention effect ([5]; lotion, blend amount 1 wt %) was “⊚ (prominently effective or effective for 80% or more of the subjects)”. For the same compound, the Ultraviolet prevention effect ([5]; lotion, blend amount 5 wt %) was “⊚ (prominently effective or effective for 80% or more of the subjects)”, the Ultraviolet prevention effect ([5]; lotion, blend amount 10 wt %) was “⊚ (prominently effective or effective for 80% or more of the subjects)” and the Ultraviolet prevention effect ([5]; lotion, blend amount 20 wt %) was “⊚ (prominently effective or effective for 80% or more of the subjects)”. The “Appearance (visual determination)” value [6] was “◯”, the “Remaining ratio (%)” value ([6]; liquid chromatography) was 98.4% and the “Determination (skin reaction, continuous application test)” value ([7]; cream) was “⊚ (mean score of 0)”. For the same compound, the “Determination (skin reaction, continuous application test)” value ([7]; lotion) was “⊚ (mean score of 0)”, the “Determination (skin reaction, patch test)” value ([8]; cream) was “⊚ (mean score of 0)” and the “Determination (skin reaction, patch test)” value ([8]; lotion) was “⊚ (mean score of 0)”.
